This is an account of results in article PMC4063337, “Structure–Activity Relationships of Quinoxaline-Based 5-HT3A and 5-HT3AB Receptor-Selective Ligands” (Chemmedchem, 2013).

One experiment deals with T1, 5-HT3A receptor (Homo sapiens, UniProt P46098).
T1 construct: gene HTR3A; homomeric (pentameric) receptor expressed recombinantly in HEK293 cells; cell membranes
T1 sequence (P46098 24-478): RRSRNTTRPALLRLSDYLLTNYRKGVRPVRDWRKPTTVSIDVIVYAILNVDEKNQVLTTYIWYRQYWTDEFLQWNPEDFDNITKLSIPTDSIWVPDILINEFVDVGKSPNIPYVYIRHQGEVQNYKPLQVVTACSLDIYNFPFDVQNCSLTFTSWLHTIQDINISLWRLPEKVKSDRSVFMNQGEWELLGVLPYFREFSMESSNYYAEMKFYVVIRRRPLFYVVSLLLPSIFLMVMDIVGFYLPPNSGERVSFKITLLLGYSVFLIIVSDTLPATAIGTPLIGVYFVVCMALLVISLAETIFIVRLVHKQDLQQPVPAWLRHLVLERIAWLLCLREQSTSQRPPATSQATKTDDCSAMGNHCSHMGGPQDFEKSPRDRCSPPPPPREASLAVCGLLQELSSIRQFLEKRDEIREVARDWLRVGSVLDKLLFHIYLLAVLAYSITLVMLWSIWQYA
In words: [3H]granisetron competition binding, HEK293 membranes. The note with it: for pKi (A): 0.7 nM [3H]granisetron, 10 mM HEPES pH 7.4, 4 °C, at least 24 h; for Ki: read-out: pKi (A) (converted). The text has this: [3H]granisetron competition binding, HEK293 membranes on 5-HT3A receptor

A further experiment concerns the target T2, 5-HT3AB receptor (Homo sapiens, UniProt O95264+P46098).
T2 construct: gene HTR3A; heteromeric (pentameric) receptor expressed recombinantly in HEK293 cells; cell membranes; sites at A+A- and possibly A+B- interfaces; with 5-hydroxytryptamine receptor 3B
T2 sequence (P46098 24-478): T1 sequence (P46098 24-478)
T2 sequence (O95264 22-441): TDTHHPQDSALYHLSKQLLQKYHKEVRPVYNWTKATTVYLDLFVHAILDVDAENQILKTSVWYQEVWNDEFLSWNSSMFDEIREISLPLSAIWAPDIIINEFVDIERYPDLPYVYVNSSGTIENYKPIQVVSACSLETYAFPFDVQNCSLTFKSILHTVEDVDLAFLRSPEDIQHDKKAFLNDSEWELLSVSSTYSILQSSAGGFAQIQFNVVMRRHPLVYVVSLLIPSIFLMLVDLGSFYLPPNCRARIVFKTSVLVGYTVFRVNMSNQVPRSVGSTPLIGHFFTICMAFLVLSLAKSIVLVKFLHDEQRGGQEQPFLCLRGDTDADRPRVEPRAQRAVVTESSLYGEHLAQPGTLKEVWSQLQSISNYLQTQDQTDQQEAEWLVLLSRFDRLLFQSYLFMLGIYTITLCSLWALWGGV
The experiment is described as above. The note with it: for Ki: read-out: pKi (AB) (converted). The text has this: [3H]granisetron competition binding, HEK293 membranes on 5-HT3AB receptor

As to `CN1CCN(c2nc3ccccc3nc2Cl)CC1` [VUF10166, 2-chloro-3-(4-methylpiperazin-1-yl)quinoxaline], on 5-HT3A receptor, the “pKi (A)” value was found to be 9.82±0.26. Moreover, at 5-HT3AB receptor, the Ki is 12.6 nM.
As to `CN1CCN(c2nc3ccccc3[nH]c2=O)CC1` [compound 1, 3-(4-methylpiperazin-1-yl)quinoxalin-2-ol], the Ki on 5-HT3A receptor is 1.17 nM; on 5-HT3AB receptor, 0.437 nM.
Taken in the same sequence, the figures for `CCc1nc2ccccc2nc1N1CCN(C)CC1` [compound 6, 2-Ethyl-3-(4-methylpiperazin-1-yl)quinoxaline] were 0.631 nM and 1.45 nM.
`CN1CCN(c2cnc3cc(Cl)c(Cl)cc3n2)CC1` [compound 7, 6,7-Dichloro-2-(4-methylpiperazin-1-yl)quinoxaline]: the results for the Ki on 5-HT3A receptor and at 5-HT3AB receptor were 3.89 nM and 8.51 nM, respectively.
`CN1CCN(c2nc3ccccc3nc2N)CC1` [compound 10, 3-(4-Methylpiperazin-1-yl)quinoxalin-2-amine]: the Ki was 2.95 nM at 5-HT3A receptor and 30.9 nM at 5-HT3AB receptor.
The like results for `CN1CCN(c2nc3cc(Cl)c(Cl)cc3nc2Cl)CC1` [compound 11, 2,6,7-Trichloro-3-(4-methylpiperazin-1-yl)quinoxaline] were, in that order, 8.13 nM and 33.1 nM.
In the case of `CN1CCN(c2nc3ccccc3nc2Br)CC1` [compound 14, 2-Bromo-3-(4-methylpiperazin-1-yl)quinoxaline], the values for the Ki at 5-HT3A receptor and on 5-HT3AB receptor were 0.49 nM and 1.41 nM, respectively.
As for `CN1CCCN(c2nc3ccccc3nc2Cl)CC1` [compound 16, 2-Chloro-3-(4-methyl-1,4-diazepan-1-yl)quinoxaline], the results for the Ki at 5-HT3A receptor and on 5-HT3AB receptor were 0.776 nM and 4.57 nM, respectively.
Turning to `CNC1CCN(c2nc3ccccc3nc2Cl)C1` (stereo not shown) [compound 18, 1-(3-Chloroquinoxalin-2-yl)-N-methylpyrrolidin-3-amine], the results for the Ki at 5-HT3A receptor and at 5-HT3AB receptor were 204 nM and 214 nM, respectively.
Turning to `CN1CCCN(c2cnc3ccccc3n2)CC1` [compound 19, 2-(4-Methyl-1,4-diazepan-1-yl)quinoxaline], the Ki at 5-HT3A receptor is 8.13 nM; at 5-HT3AB receptor, 33.1 nM.
Regarding `CNC1CCN(c2cnc3ccccc3n2)C1` (stereo not shown) [compound 21, N-Methyl-1-(quinoxalin-2-yl)pyrrolidin-3-amine], the Ki at 5-HT3A receptor was 32.4 nM; on 5-HT3AB receptor, 77.6 nM.
Regarding `CN1CCN(c2nc3ccc(Cl)cc3[nH]c2=O)CC1` [compound 22, 7-chloro-3-(4-methylpiperazin-1-yl)quinoxalin-2(1H)-one], the Ki is 31.6 nM at 5-HT3A receptor and 7.24 nM on 5-HT3AB receptor.
As for `CN1CCN(c2nc3ccc(Cl)cc3nc2Cl)CC1` [compound 23, 3,6-Dichloro-2-(4-methylpiperazin-1-yl)quinoxaline], the figures for the Ki at 5-HT3A receptor and on 5-HT3AB receptor were 1.12 nM and 14.1 nM, respectively.
With `CN1CCN(c2cnc3ccccc3n2)CC1` [compound 24, 2-(4-methylpiperazin-1-yl)quinoxaline], the “pKi (A)” value at 5-HT3A receptor is 8.21±0.26. Also, the “pKi (AB)” value on 5-HT3AB receptor (0.7 nM [3H]granisetron, 10 mM HEPES pH 7.4, 4 °C, at least 24 h) was determined as 9.13±0.30.
As to `Cc1nc2ccccc2nc1N1CCN(C)CC1` [compound 26, 26], the values for the Ki at 5-HT3A receptor and at 5-HT3AB receptor were 2.57 nM and 3.8 nM, respectively.
Taken in the same sequence, the figures for `CN1CCN(c2nc3ccccc3nc2C(F)(F)F)CC1` [compound 27, 27] were 44.7 nM and 38 nM.
Take `COc1nc2ccccc2nc1N1CCN(C)CC1` [compound 28, 28]: the Ki on 5-HT3A receptor is 0.661 nM; on 5-HT3AB receptor it was 4.57 nM.
Take `CCOc1nc2ccccc2nc1N1CCN(C)CC1` [compound 29, 29]: the Ki on 5-HT3A receptor is 1 nM; at 5-HT3AB receptor it was 5.75 nM.
The like results for `CN1CCN(c2nc3ccccc3nc2OC2CCCCC2)CC1` [compound 30, 30] were, in that order, 537 nM and 195 nM.
The like results for `CN1CCN(c2nc3ccccc3nc2Oc2ccccc2)CC1` [compound 31, 31] were, in that order, 87.1 nM and 170 nM.
For `CN1CCN(c2nc3ccccc3nc2OCc2ccccc2)CC1` [compound 32, 32], the figures for the Ki on 5-HT3A receptor and at 5-HT3AB receptor were 129 nM and 75.9 nM, respectively.
Consider `CN1CCN(c2cnc3cc(Cl)ccc3n2)CC1` [compound 33, 33], for which the Ki on 5-HT3A receptor was 16.2 nM; on 5-HT3AB receptor it was 102 nM.
Regarding `CN1CCN(c2nc3cc(Cl)c(Cl)cc3[nH]c2=O)CC1` [compound 34, 34], the Ki at 5-HT3A receptor was 50.1 nM; on 5-HT3AB receptor, 72.4 nM.
